Assay results: patent publication US11292788B2, “IL-17 and IFN-gamma inhibition for the treatment of autoimmune diseases and chronic inflammation” (Immunic AG, priority 2017, dated 2022)
Where two headings read alike, the source gives them in different places.

Legend:
Assay type in all cases: cell-based
IL-17F = experiment: Cytokine assay: IL-17F production by human PBMC stimulated with PHA; conditions: IC50 class, read-out: IL-17F Inhib.
Description: (§1) Cytokine Assay: Analysis of Proliferation of and Cytokine Production by Human PBMC Stimulated with PHA
(§2) Peripheral blood mononuclear cells (PBMC) from healthy human donors were purified using Accuspin™ System-Histopaque-1077 (Sigma) according to the protocol recommended by the manufacturer. Purified PBMC were then washed twice with phosphate-buffered saline (PBS) and resuspended in RPMI1640 culture medium supplemented with 10% dialyzed heat inactivated fetal calf serum, 1.5 mM L-glutamine, 100 U penicillin/ml, and […] (all from PAN Biotech, Aidenbach, Germany). For stimulation, PBMC were seeded at 1×10^5 cells/well, activated with 2 μg/ml phytohaemagglutinin (PHA, Sigma) and incubated with the test compounds for 48 hours. IL-17A, IL-17F and INF-γ were then determined in the culture supernatant using a Luminex BioPlex system, following the manufacturer's instructions (BioRad, Munich, Germany). For screening, compounds were used at 10, 1, 0.1 and 0.01 μM. To determine the IC50, compounds were titrated semilogarithmically.
(§3) Cytokines were determined in the aforementioned culture supernatant using the following methods: IL-17A was measured using the human homodimer IL-17A ELISA Ready Set Go Kit from eBioscience (Frankfurt, Germany); IL-17F using the human IL-17F ELI-Pair from Hölzel DiagnosticaGmBH (Köln, Germany); and IFN-γ using the OptEIA human IFN-g ELISA from BD Bioscience (Heidelberg, Germany), all following the manufacturer's instructions.

INF-γ = experiment: Cytokine assay: INF-γ production by human PBMC stimulated with PHA; conditions: IC50 class, read-out: IFN-gamma Inhib.
Description: as §1, §2, §3

IL-17A = experiment: Cytokine assay: IL-17A production by human PBMC stimulated with PHA; conditions: IC50 class, read-out: IL-17A Inhib.
Description: as §1, §2, §3

C[C@]1(O)C[C@H](n2ncc(-c3onc(-c4c(F)cccc4Cl)c3C(=O)OC3CC3)c2C(F)(F)F)C1 [Example 50, cyclopropyl 3-(2-chloro-6-fluorophenyl)-5-(1-(3-hydroxy-3-methylcyclobutyl)-5-(trifluoromethyl)-1H-pyrazol-4-yl)isoxazole-4-carboxylate]
IC50 (IL-17F; Homo sapiens, PBMC): < 50 nM
IC50 (INF-γ; Homo sapiens, PBMC): < 50 nM
IC50 (IL-17A; Homo sapiens, PBMC): 50 to 500 nM

Cc1c(-c2onc(-c3ccccc3Cl)c2C(=O)OC2COC2)cnn1[C@H]1C[C@@](C)(O)C1 [Example 52, oxetan-3-yl 3-(2-chlorophenyl)-5-(1-(3-hydroxy-3-methylcyclobutyl)-5-methyl-1H-pyrazol-4-yl)isoxazole-4-carboxylate]
IC50 (IL-17F; Homo sapiens, PBMC): 50 to 500 nM
IC50 (INF-γ; Homo sapiens, PBMC): 50 to 500 nM
IC50 (IL-17A; Homo sapiens, PBMC): 50 to 500 nM

Cc1c(-c2onc(-c3ccccc3Cl)c2C(=O)OC2CC2)cnn1[C@H]1C[C@@](C)(O)C1 [Example 54, cyclopropyl 3-(2-chlorophenyl)-5-{5-methyl-1-[3-hydroxy-3-methylcyclobutyl]-1H-pyrazol-4-yl}-1,2-oxazole-4-carboxylate]
IC50 (IL-17F): 500 to 5000 nM
IC50 (INF-γ): 50 to 500 nM
IC50 (IL-17A): 500 to 5000 nM

CC(C)(O)Cn1ncc(-c2onc(-c3c(F)cccc3Cl)c2C(=O)OC2COC2)c1C(F)(F)F [Example 57, oxetan-3-yl 3-(2-chloro-6-fluorophenyl)-5-[1-(2-hydroxy-2-methylpropyl)-5-(trifluoromethyl)-1H-pyrazol-4-yl]-1,2-oxazole-4-carboxylate]
IC50 (IL-17F; Homo sapiens, PBMC): 50 to 500 nM
IC50 (INF-γ; Homo sapiens, PBMC): 50 to 500 nM
IC50 (IL-17A; Homo sapiens, PBMC): 500 to 5000 nM

CC(C)(O)Cn1ncc(-c2onc(-c3c(F)cccc3Cl)c2CO)c1C(F)(F)F [Example 63, 1-(4-(3-(2-chloro-6-fluorophenyl)-4-(hydroxymethyl)isoxazol-5-yl)-5-(trifluoromethyl)-1H-pyrazol-1-yl)-2-methylpropan-2-ol]
IC50 (IL-17F; Homo sapiens, PBMC): ≥ 5000 nM
IC50 (INF-γ; Homo sapiens, PBMC): ≥ 5000 nM
IC50 (IL-17A; Homo sapiens, PBMC): ≥ 5000 nM

C[C@]1(O)C[C@@H](n2ncc(-c3onc(-c4ccccc4Cl)c3CO)c2C(F)(F)F)C1 [Example 64, 3-(4-(3-(2-chlorophenyl)-4-(hydroxymethyl)-1,2-oxazol-5-yl)-5-(trifluoromethyl)-1H-pyrazol-1-yl)-1-methylcyclobutan-1-ol]
IC50 (IL-17F; Homo sapiens, PBMC): ≥ 5000 nM
IC50 (INF-γ; Homo sapiens, PBMC): 500 to 5000 nM
IC50 (IL-17A; Homo sapiens, PBMC): ≥ 5000 nM

COCc1c(-c2c(F)cccc2Cl)noc1-c1cnn(C[C@H](C)O)c1C(F)(F)F [Example 68, (2S)-1-(4-(3-(2-chloro-6-fluorophenyl)-4-(methoxymethyl)isoxazol-5-yl)-5-(trifluoromethyl)-1H-pyrazol-1-yl)propan-2-ol]
IC50 (IL-17F; Homo sapiens, PBMC): 500 to 5000 nM
IC50 (INF-γ; Homo sapiens, PBMC): 50 to 500 nM
IC50 (IL-17A; Homo sapiens, PBMC): 500 to 5000 nM

COCc1c(-c2ccccc2Cl)noc1-c1cnn([C@H]2C[C@@](C)(O)C2)c1C [Example 72, 3-{4-[3-(2-chlorophenyl)-4-(methoxymethyl)-1,2-oxazol-5-yl]-5-methyl-1H-pyrazol-1-yl}-1-methylcyclobutan-1-ol]
IC50 (IL-17F; Homo sapiens, PBMC): 50 to 500 nM
IC50 (INF-γ; Homo sapiens, PBMC): < 50 nM
IC50 (IL-17A; Homo sapiens, PBMC): 50 to 500 nM

COCc1c(-c2ccccc2Cl)noc1-c1cnn([C@H]2C[C@](C)(O)C2)c1C [Example 73, 3-{4-[3-(2-chlorophenyl)-4-(methoxymethyl)-1,2-oxazol-5-yl]-5-methyl-1H-pyrazol-1-yl}-1-methylcyclobutan-1-ol]
IC50 (IL-17F; Homo sapiens, PBMC): 500 to 5000 nM
IC50 (INF-γ; Homo sapiens, PBMC): 500 to 5000 nM
IC50 (IL-17A; Homo sapiens, PBMC): 500 to 5000 nM

COCc1c(-c2ccccc2Cl)noc1-c1cnn([C@H]2C[C@@](C)(O)C2)c1C(F)(F)F [Example 74, 3-(4-(3-(2-chlorophenyl)-4-(methoxymethyl)isoxazol-5-yl)-5-(trifluoromethyl)-1H-pyrazol-1-yl)-1-methylcyclobutan-1-ol]
IC50 (IL-17F; Homo sapiens, PBMC): 50 to 500 nM
IC50 (INF-γ; Homo sapiens, PBMC): 50 to 500 nM
IC50 (IL-17A; Homo sapiens, PBMC): 50 to 500 nM

COCCOCc1c(-c2ccccc2Cl)noc1-c1cnn(C[C@H](C)O)c1C(F)(F)F [Example 75, (2S)-1-{4-[3-(2-chlorophenyl)-4-[(2-methoxyethoxy)methyl]-1,2-oxazol-5-yl]-5-(trifluoromethyl)-1H-pyrazol-1-yl}propan-2-ol]
IC50 (IL-17F; Homo sapiens, PBMC): 500 to 5000 nM
IC50 (INF-γ; Homo sapiens, PBMC): 500 to 5000 nM
IC50 (IL-17A; Homo sapiens, PBMC): 500 to 5000 nM

Cc1c(-c2onc(-c3ccccc3Cl)c2COC2CC2)cnn1CCC(C)(C)O [Example 79, 4-{4-[3-(2-chlorophenyl)-4-(cyclopropoxymethyl)-1,2-oxazol-5-yl]-5-methyl-1H-pyrazol-1-yl}-2-methylbutan-2-ol]
IC50 (IL-17F; Homo sapiens, PBMC): 50 to 500 nM
IC50 (INF-γ; Homo sapiens, PBMC): < 50 nM
IC50 (IL-17A; Homo sapiens, PBMC): 50 to 500 nM

Cc1c(-c2onc(-c3ccccc3Cl)c2COC2CC2)cnn1[C@H]1C[C@](C)(O)C1 [Example 81, 3-{4-[3-(2-chlorophenyl)-4-(cyclopropoxymethyl)-1,2-oxazol-5-yl]-5-methyl-1H-pyrazol-1-yl}-1-methylcyclobutan-1-ol]
IC50 (IL-17F; Homo sapiens, PBMC): 500 to 5000 nM
IC50 (INF-γ; Homo sapiens, PBMC): 50 to 500 nM
IC50 (IL-17A; Homo sapiens, PBMC): 500 to 5000 nM

Cc1c(-c2onc(-c3c(F)cccc3Cl)c2COC2CC2)cnn1[C@H]1C[C@](C)(O)C1 [Example 84, 3-{4-[3-(2-chloro-6-fluorophenyl)-4-(cyclopropoxymethyl)-1,2-oxazol-5-yl]-5-methyl-1H-pyrazol-1-yl}-1-methylcyclobutan-1-ol]
IC50 (IL-17F; Homo sapiens, PBMC): 50 to 500 nM
IC50 (INF-γ; Homo sapiens, PBMC): 50 to 500 nM
IC50 (IL-17A; Homo sapiens, PBMC): 50 to 500 nM

C[C@H](O)Cn1ncc(-c2onc(-c3ccccc3Cl)c2COC2COC2)c1C(F)(F)F [Example 88, (S)-1-(4-(3-(2-chlorophenyl)-4-((oxetan-3-yloxy)methyl)isoxazol-5-yl)-5-(trifluoromethyl)-1H-pyrazol-1-yl)propan-2-ol]
IC50 (IL-17F; Homo sapiens, PBMC): 500 to 5000 nM
IC50 (INF-γ; Homo sapiens, PBMC): 500 to 5000 nM
IC50 (IL-17A; Homo sapiens, PBMC): ≥ 5000 nM

COc1cccc(-c2noc(-c3cnn(CCC(C)(C)O)c3C(F)(F)F)c2COC2CC2)c1Cl [Example 91, 4-{4-[3-(2-chloro-3-methoxyphenyl)-4-(cyclopropoxymethyl)-1,2-oxazol-5-yl]-5-(trifluoromethyl)-1H-pyrazol-1-yl}-2-methylbutan-2-ol]
IC50 (IL-17F; Homo sapiens, PBMC): < 50 nM
IC50 (INF-γ; Homo sapiens, PBMC): < 50 nM
IC50 (IL-17A; Homo sapiens, PBMC): < 50 nM

COC(=O)c1c(-c2cccnc2O)noc1-c1cnn(CC(C)(C)O)c1C(F)(F)F [Example 93, methyl 5-[1-(2-hydroxy-2-methylpropyl)-5-(trifluoromethyl)-1H-pyrazol-4-yl]-3-(2-hydroxypyridin-3-yl)-1,2-oxazole-4-carboxylate]
IC50 (IL-17F; Homo sapiens, PBMC): 50 to 500 nM
IC50 (INF-γ; Homo sapiens, PBMC): 50 to 500 nM
IC50 (IL-17A; Homo sapiens, PBMC): 500 to 5000 nM

C[C@@H](O)Cn1ncc(-c2cc(-c3c(F)cccc3Cl)no2)c1C(F)(F)F [Example 94, (2R)-1-(4-(3-(2-chloro-6-fluorophenyl)isoxazol-5-yl)-5-(trifluoromethyl)-1H-pyrazol-1-yl)propan-2-ol]
IC50 (IL-17F; Homo sapiens, PBMC): ≥ 5000 nM
IC50 (INF-γ; Homo sapiens, PBMC): 500 to 5000 nM
IC50 (IL-17A; Homo sapiens, PBMC): ≥ 5000 nM

C[C@H](O)Cn1ncc(-c2onc(-c3ccccc3Cl)c2C2CCCO2)c1C(F)(F)F (stereo partly drawn) [Example 96, (2S)-1-{4-[3-(2-chlorophenyl)-4-(oxolan-2-yl)-1,2-oxazol-5-yl]-5-(trifluoromethyl)-1H-pyrazol-1-yl}propan-2-ol]
IC50 (IL-17F; Homo sapiens, PBMC): 500 to 5000 nM
IC50 (INF-γ; Homo sapiens, PBMC): 50 to 500 nM
IC50 (IL-17A; Homo sapiens, PBMC): 500 to 5000 nM

C[C@]1(O)C[C@@H](n2ncc(-c3onc(-c4c(F)cccc4Cl)c3-c3ccncn3)c2C(F)(F)F)C1 [Example 105, 3-{4-[3-(2-chloro-6-fluorophenyl)-4-(pyrimidin-4-yl)-1,2-oxazol-5-yl]-5-(trifluoromethyl)-1H-pyrazol-1-yl}-1-methylcyclobutan-1-ol]
IC50 (IL-17F): 50 to 500 nM
IC50 (INF-γ): 50 to 500 nM
IC50 (IL-17A): 500 to 5000 nM

Cc1c(-c2onc(-c3ccccc3Cl)c2-c2ccncn2)cnn1[C@H]1C[C@@](C)(O)C1 [Example 107, 3-{4-[3-(2-chlorophenyl)-4-(pyrimidin-4-yl)-1,2-oxazol-5-yl]-5-methyl-1H-pyrazol-1-yl}-1-methylcyclobutan-1-ol]
IC50 (IL-17F; Homo sapiens, PBMC): 50 to 500 nM
IC50 (INF-γ; Homo sapiens, PBMC): < 50 nM
IC50 (IL-17A; Homo sapiens, PBMC): 50 to 500 nM

Cc1c(-c2onc(-c3c(F)cccc3Cl)c2-c2ccncn2)cnn1[C@H]1C[C@@](C)(O)C1 [Example 108, 3-{4-[3-(2-chloro-6-fluorophenyl)-4-(pyrimidin-4-yl)-1,2-oxazol-5-yl]-5-methyl-1H-pyrazol-1-yl}-1-methylcyclobutan-1-ol]
IC50 (IL-17F; Homo sapiens, PBMC): 50 to 500 nM
IC50 (INF-γ; Homo sapiens, PBMC): 50 to 500 nM
IC50 (IL-17A; Homo sapiens, PBMC): 50 to 500 nM

Cc1c(-c2onc(-c3ccccc3Cl)c2-c2cnccn2)cnn1[C@H]1C[C@@](C)(O)C1 [Example 109, 3-{4-[3-(2-chlorophenyl)-4-(pyrazin-2-yl)-1,2-oxazol-5-yl]-5-methyl-1H-pyrazol-1-yl}-1-methylcyclobutan-1-ol]
IC50 (IL-17F; Homo sapiens, PBMC): 500 to 5000 nM
IC50 (INF-γ; Homo sapiens, PBMC): 50 to 500 nM
IC50 (IL-17A; Homo sapiens, PBMC): 500 to 5000 nM

COc1ccccc1-c1noc(-c2cnn(C[C@@H](C)O)c2C(F)(F)F)c1-c1ncccn1 [Example 113, (2R)-1-{4-[3-(2-methoxyphenyl)-4-(pyrimidin-2-yl)-1,2-oxazol-5-yl]-5-(trifluoromethyl)-1H-pyrazol-1-yl}propan-2-ol]
IC50 (IL-17F; Homo sapiens, PBMC): 50 to 500 nM
IC50 (INF-γ; Homo sapiens, PBMC): 500 to 5000 nM
IC50 (IL-17A; Homo sapiens, PBMC): 500 to 5000 nM
